Assay results reported in patent US20080140138A1, “Inhibition of inflammatory cytokine production by stimulation of brain muscarinic receptors” (priority 2002, published 2008).

How the values were obtained:
site 2 sodium = assay: NovaScreen receptor binding panel; settings: 10 μM; <50% = marginal or no activity
Method: (§1) Method of determining CNI-1493 receptor binding. CNI-1493 was tested at a single concentration (10 μM) in a panel of receptor binding assays by NovaScreen Biosciences Corporation (Hanover, Md.). Values were expressed as the percent inhibition of specific binding, and represented the average of duplicate tubes. Method of stereotactic intracerebroventricular injections. A rat model of intracerebroventricular (i.c.v.) injections was established in order to be able to directly deliver pharmacological agents into the brain of rats. This was necessary in order to separate drug effects on peripheral inflammation that occurred through central versus peripheral mechanisms. Lewis rats were anaesthetized with urethane (1 g/kg, i.p.) and xylazine (15 mg/rat, i.m. (intramuscular)). Rats were then placed in a stereotactic head frame (Stoelting, Wood Dale, Ill., USA). The incisor bar was adjusted until the plane defined by the lambda and bregma was parallel to the base plate. For i.c.v. injections the needle of a Hamilton syringe (25 μl) was positioned stereotactically above the lateral ventricle (0.2 mm and 1.5 mm posterior to bregma, 3.2 mm below the dura.) Solutions of the drugs tested were prepared in sterile endotoxin-free water, at the specified concentrations, and a 10-μl injection/rat was administered over 2 min, 1 h prior to either carrageenan injection, or to LPS.

thromboxane A2 = thromboxane A2 (Homo sapiens, UniProt P21731); assay: NovaScreen receptor binding panel; settings: 10 μM; <50% = marginal or no activity
Chain of thromboxane A2 (P21731 whole entry): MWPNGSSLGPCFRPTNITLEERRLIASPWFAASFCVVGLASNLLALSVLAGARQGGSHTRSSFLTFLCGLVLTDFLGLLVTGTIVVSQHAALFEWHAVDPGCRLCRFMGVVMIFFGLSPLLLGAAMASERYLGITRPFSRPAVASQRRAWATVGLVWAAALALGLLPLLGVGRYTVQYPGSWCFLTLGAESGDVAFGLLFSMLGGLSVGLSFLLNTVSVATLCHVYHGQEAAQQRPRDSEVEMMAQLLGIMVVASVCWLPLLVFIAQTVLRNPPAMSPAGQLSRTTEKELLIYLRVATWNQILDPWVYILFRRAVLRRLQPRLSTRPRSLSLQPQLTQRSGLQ
Method: as §1

Type L calcium channel = assay: NovaScreen receptor binding panel; settings: 10 μM; <50% = marginal or no activity
Method: as §1

vasopressin 1 = vasopressin 1 (Homo sapiens, UniProt P37288); assay: NovaScreen receptor binding panel; settings: 10 μM; <50% = marginal or no activity
Chain of vasopressin 1 (P37288 whole entry): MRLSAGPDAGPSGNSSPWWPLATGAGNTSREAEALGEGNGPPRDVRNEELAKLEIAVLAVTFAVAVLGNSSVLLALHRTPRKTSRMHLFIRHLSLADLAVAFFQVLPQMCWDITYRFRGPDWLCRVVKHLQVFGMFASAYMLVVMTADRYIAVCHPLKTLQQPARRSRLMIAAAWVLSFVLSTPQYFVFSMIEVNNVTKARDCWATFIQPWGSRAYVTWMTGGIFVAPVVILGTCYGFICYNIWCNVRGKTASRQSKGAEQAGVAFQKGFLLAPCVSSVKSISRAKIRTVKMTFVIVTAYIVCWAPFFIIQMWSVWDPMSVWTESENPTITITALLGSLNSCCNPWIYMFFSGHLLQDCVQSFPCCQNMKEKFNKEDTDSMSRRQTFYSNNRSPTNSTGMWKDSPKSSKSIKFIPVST
Method: as §1

muscarinic = assay: NovaScreen receptor binding panel; settings: 10 μM, average of duplicate tubes
Method: as §1

site 1 sodium = assay: NovaScreen receptor binding panel; settings: 10 μM; <50% = marginal or no activity
Method: as §1

epidermal growth factor = epidermal growth factor (Homo sapiens, UniProt P00533); assay: NovaScreen receptor binding panel; settings: 10 μM; <50% = marginal or no activity
Method: as §1

dopamine = assay: NovaScreen receptor binding panel; settings: 10 μM; <50% = marginal or no activity
Method: as §1

NK1 neurokinin = NK1 neurokinin (Homo sapiens, UniProt P25103); assay: NovaScreen receptor binding panel; settings: 10 μM; <50% = marginal or no activity
Chain of NK1 neurokinin (P25103 whole entry): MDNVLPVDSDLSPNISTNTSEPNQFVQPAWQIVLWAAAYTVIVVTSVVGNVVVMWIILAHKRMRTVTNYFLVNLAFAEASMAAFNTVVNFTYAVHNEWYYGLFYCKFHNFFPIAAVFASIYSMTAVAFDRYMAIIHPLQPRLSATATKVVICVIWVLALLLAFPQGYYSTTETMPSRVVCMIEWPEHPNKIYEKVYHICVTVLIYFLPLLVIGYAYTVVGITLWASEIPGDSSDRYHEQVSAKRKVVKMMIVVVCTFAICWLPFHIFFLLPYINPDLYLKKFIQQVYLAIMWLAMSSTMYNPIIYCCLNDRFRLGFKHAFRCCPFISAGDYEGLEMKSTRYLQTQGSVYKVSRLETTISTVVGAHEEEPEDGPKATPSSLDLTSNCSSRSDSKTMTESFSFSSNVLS
Method: as §1

Type N calcium channel = Type N calcium channel (Homo sapiens, UniProt Q00975); assay: NovaScreen receptor binding panel; settings: 10 μM, average of duplicate tubes
Chain of Type N calcium channel (P54289 25-946): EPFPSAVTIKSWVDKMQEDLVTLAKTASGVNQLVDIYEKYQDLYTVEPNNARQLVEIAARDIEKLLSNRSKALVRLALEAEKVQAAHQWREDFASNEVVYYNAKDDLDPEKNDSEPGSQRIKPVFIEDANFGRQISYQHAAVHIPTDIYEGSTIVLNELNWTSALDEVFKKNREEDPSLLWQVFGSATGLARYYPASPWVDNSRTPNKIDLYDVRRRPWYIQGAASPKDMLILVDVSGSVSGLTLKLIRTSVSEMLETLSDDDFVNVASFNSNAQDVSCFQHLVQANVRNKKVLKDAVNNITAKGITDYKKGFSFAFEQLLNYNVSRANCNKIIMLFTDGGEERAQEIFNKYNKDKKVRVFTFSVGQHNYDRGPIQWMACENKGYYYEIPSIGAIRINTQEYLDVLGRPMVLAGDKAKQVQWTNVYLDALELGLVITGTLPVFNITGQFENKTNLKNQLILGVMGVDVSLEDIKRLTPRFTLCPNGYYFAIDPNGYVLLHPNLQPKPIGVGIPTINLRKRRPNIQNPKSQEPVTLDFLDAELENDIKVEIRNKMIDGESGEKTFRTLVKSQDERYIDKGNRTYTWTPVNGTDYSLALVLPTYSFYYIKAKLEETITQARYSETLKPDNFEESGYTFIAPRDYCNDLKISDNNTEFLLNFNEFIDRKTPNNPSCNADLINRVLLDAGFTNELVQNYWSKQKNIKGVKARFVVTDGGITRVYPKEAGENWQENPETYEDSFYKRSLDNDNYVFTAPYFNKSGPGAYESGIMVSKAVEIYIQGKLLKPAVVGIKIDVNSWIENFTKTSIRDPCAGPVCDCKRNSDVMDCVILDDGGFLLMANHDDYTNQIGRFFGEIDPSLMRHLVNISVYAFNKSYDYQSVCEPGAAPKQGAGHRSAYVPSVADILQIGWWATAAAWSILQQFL
Chain of Type N calcium channel (Q00975 whole entry): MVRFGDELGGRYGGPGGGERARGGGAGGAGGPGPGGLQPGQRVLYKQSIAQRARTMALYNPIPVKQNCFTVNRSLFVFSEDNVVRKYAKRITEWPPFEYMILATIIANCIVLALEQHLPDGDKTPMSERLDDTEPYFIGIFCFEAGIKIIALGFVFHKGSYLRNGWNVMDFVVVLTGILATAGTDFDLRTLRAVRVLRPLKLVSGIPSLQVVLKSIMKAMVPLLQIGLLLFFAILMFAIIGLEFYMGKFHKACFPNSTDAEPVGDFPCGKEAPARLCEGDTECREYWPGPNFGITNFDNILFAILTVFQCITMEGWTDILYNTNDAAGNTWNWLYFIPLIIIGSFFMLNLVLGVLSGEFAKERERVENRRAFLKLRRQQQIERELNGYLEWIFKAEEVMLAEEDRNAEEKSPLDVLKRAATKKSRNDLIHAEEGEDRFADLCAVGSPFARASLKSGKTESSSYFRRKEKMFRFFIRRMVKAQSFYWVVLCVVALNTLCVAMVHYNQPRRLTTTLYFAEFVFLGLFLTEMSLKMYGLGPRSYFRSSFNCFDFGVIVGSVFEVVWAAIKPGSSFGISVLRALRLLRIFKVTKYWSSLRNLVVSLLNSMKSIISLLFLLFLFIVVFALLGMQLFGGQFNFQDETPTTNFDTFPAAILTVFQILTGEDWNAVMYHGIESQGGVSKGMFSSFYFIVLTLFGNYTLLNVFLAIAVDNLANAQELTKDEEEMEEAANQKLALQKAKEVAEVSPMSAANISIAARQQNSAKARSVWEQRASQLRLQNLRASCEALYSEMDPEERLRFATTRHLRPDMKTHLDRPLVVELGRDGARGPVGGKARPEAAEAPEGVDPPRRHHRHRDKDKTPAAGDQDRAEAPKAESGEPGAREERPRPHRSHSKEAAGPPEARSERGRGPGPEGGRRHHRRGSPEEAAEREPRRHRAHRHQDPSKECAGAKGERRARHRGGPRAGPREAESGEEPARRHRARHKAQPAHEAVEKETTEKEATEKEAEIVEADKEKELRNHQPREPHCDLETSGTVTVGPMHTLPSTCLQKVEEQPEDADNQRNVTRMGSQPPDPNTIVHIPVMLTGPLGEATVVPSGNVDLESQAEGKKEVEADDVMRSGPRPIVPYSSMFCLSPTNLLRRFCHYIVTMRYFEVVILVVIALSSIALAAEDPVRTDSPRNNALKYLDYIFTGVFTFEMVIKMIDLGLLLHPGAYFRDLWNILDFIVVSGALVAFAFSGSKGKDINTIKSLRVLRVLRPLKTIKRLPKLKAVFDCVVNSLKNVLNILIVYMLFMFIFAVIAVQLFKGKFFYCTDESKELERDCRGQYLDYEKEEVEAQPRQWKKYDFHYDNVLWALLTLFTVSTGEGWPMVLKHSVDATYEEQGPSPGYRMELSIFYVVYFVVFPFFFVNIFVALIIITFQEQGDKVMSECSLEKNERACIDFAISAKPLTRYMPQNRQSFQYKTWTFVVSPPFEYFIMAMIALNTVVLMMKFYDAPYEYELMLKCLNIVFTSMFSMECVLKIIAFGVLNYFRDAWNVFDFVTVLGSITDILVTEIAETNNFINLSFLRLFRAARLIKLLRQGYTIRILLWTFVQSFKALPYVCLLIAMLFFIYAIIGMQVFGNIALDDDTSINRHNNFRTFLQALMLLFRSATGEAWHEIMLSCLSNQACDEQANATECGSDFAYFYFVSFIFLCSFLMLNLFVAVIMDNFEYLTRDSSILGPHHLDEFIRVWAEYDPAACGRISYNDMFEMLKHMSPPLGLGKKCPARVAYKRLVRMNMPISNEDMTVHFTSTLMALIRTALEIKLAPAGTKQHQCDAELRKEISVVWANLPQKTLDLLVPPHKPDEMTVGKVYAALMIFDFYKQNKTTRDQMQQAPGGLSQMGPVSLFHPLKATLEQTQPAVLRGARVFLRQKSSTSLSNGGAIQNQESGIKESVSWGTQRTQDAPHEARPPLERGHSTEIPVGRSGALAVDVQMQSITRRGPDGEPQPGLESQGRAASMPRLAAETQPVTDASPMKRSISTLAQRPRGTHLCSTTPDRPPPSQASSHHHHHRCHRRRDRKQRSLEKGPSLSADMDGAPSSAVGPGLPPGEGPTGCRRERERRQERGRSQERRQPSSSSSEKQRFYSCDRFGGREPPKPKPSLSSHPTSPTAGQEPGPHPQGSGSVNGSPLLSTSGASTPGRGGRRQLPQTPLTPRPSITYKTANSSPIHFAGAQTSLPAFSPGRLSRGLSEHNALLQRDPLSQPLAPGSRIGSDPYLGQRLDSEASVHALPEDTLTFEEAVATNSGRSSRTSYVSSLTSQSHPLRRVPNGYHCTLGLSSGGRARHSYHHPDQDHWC
Chain of Type N calcium channel (P54289 947-1103): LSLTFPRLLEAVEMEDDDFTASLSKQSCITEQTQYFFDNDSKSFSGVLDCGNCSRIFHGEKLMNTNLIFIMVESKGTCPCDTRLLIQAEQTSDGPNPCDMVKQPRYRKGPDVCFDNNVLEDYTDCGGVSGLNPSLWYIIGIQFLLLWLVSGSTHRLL
Chain of Type N calcium channel (P54284 whole entry, further chain): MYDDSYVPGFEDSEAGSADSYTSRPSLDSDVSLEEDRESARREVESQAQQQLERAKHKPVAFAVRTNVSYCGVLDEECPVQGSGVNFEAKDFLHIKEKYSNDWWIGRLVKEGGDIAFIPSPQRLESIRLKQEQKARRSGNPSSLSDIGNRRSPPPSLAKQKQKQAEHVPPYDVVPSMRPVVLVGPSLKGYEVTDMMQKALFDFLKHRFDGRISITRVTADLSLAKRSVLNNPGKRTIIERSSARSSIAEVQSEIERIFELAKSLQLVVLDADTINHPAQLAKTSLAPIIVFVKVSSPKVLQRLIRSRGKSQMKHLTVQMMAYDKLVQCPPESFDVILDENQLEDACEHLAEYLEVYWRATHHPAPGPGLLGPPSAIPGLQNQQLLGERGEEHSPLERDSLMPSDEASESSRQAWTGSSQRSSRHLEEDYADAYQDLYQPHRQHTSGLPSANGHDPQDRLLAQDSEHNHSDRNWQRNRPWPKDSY
Method: as §1

[1] = tested on: glutamate (NMDA agonist site); assay: NovaScreen receptor binding panel; settings: 10 μM; <50% = marginal or no activity
Method: as §1

H1 histamine = H1 histamine (Homo sapiens, UniProt P35367); assay: NovaScreen receptor binding panel; settings: 10 μM; <50% = marginal or no activity
Method: as §1

chloride channel = assay: NovaScreen receptor binding panel; settings: 10 μM; <50% = marginal or no activity
Method: as §1

serotonin = assay: NovaScreen receptor binding panel; settings: 10 μM, average of duplicate tubes
Method: as §1

[2] = tested on: voltage-insensitive potassium channel; assay: NovaScreen receptor binding panel; settings: 10 μM, average of duplicate tubes
Method: as §1

[3] = tested on: voltage-sensitive potassium channel; assay: NovaScreen receptor binding panel; settings: 10 μM, average of duplicate tubes
Method: as §1

leukotriene D4 and LTD4 = assay: NovaScreen receptor binding panel; settings: 10 μM; <50% = marginal or no activity
Method: as §1

beta adrenergic = assay: NovaScreen receptor binding panel; settings: 10 μM; <50% = marginal or no activity
Method: as §1

alpha 1 adrenergic = assay: NovaScreen receptor binding panel, CNI-1493 at 10 μM; settings: average of duplicate tubes
Method: as §1

Structure (SMILES): CC(=NNC(=N)N)c1cc(NC(=O)CCCCCCCCC(=O)Nc2cc(C(C)=NNC(=N)N)cc(C(C)=NNC(=N)N)c2)cc(C(C)=NNC(=N)N)c1.Cl.Cl.Cl.Cl [CNI-1493, N,N′-bis(3,5-diacetylphenyl) decanediamide tetrakis (amidinohydrazone) tetrahydrochloride]
- percent inhibition of receptor binding (site 2 sodium): less than 50%
- percent inhibition of receptor binding (thromboxane A2): less than 50%
- percent inhibition of receptor binding (Type L calcium channel): less than 50%
- percent inhibition of receptor binding (vasopressin 1): less than 50%
- percent inhibition of specific binding (muscarinic): 60.6%
- percent inhibition of receptor binding (site 1 sodium): less than 50%
- percent inhibition of receptor binding (epidermal growth factor): less than 50%
- percent inhibition of receptor binding (dopamine): less than 50%
- percent inhibition of receptor binding (NK1 neurokinin): less than 50%
- percent inhibition of specific binding (Type N calcium channel): 84.2%
- percent inhibition of receptor binding [1]: less than 50%
- percent inhibition of receptor binding (H1 histamine): less than 50%
- percent inhibition of receptor binding (chloride channel): less than 50%
- percent inhibition of specific binding (serotonin): 75.6%
- percent inhibition of specific binding [2]: 60.2%
- percent inhibition of specific binding [3]: 73.0%
- percent inhibition of receptor binding (leukotriene D4 and LTD4): less than 50%
- percent inhibition of receptor binding (beta adrenergic): less than 50%
- percent inhibition of specific binding (alpha 1 adrenergic): 89.7%
